Consider 1 molecule from US10017480B2, “Compounds having a selective PDE4D inhibiting activity” (UNIVERSITÂ DEGLI STUDI DI GENOVA, priority 2014, dated 2018).

In one data set the target is PDE4D1 (Homo sapiens, UniProt Q08499). In words: PDE4D1 enzyme inhibition (IMAP). It is filed as biochemical.
In the next data set the target is PDE4D2 (Homo sapiens, UniProt Q08499). In words: PDE4D2 enzyme inhibition (IMAP). It is filed as biochemical.
In the next data set the target is PDE4D3 (Homo sapiens, UniProt Q08499). In words: PDE4D3 enzyme inhibition (IMAP). It is filed as biochemical. How it is done:
(§1) Compound's evaluation on PDE4D3, PDE4A4, PDE4B2 and PDE4C2 enzyme assays were performed by Scottish Biomedical (Glasgow, Scotland, UK) using recombinant human PDE enzymes expressed in a baculoviral system. The preliminary screening assays were performed by the IMAP technology (Molecular Devices), which is based on the high affinity binding of phosphate by immobilized metal coordination complexes on nanoparticles. The binding reagent complexes with phosphate groups on nucleotide monophosphate generated from cyclic nucleotides (cAMP) through phosphodiesterases. With fluorescence polarization detection, binding causes a change in the rate of the molecular motion of the phosphate bearing molecule and results in an increase in the fluorescence polarization value observed for the fluorescent label attached to the substrate. […] All compounds were solved in DMSO at 10^−2 M concentration and then diluted with water to the final suitable concentrations. All synthesized compounds were tested preliminary on PDE4D3 at 10^−5 M concentration, in duplicate. Results are expressed as a percent inhibition of control activity (see table 1).
IC50 values are reported at μM concentration in table 1. […] The results are reported (as percent of inhibition at 10 μM concentration) in Table 1.

The target in the next data set is PDE4A4 (Homo sapiens, UniProt P27815). In words: PDE4A4 enzyme inhibition (IMAP). The conditions noted are these: 10 μM. Format: biochemical. How it is done: as §1
(§2) The IC50 values obtained for the reference compounds are within accepted limits of historic averages obtained (0.5 log unit). IC50 values are reported at μM concentration in table 1. […] The results are reported (as percent of inhibition at 10 μM concentration) in Table 1.

Another data set has as its target T1, PDE4B2 (Homo sapiens, UniProt Q07343).
T1 construct: purchased Scottish Biomedical (Glasgow, Scotland, UK); host or cells: baculoviral system
In words: PDE4B2 enzyme inhibition (IMAP). The conditions noted are these: 10 μM. Format: biochemical. How it is done: as §1, §2

The target of a further data set is T2, PDE4C2 (Homo sapiens, UniProt Q08493).
T2 construct: purchased Scottish Biomedical (Glasgow, Scotland, UK); host or cells: baculoviral system
In words: PDE4C2 enzyme inhibition (IMAP). Format: biochemical. As to the method:
as §1, §2

Data set [1] can be described thus: Cytotoxicity, lactate-dehydrogenase release. Format: cell-based. The conditions noted are these: human, HTLA human neuronal cells. How it is done: To evaluate the preliminary toxic profile of the molecule XVIIIa, we performed cytotoxicity and genotoxicity assays on human neuronal cells (HTLA). For the cytotoxic potential, we analyzed the lactate-dehydrogenase release in cells exposed for 24 hours to high concentrations (100 μM) of XVIIIa or GEBR-7b (lead compound—Bruno et al, Br. J. Pharm., 2011, 164:2054).

Another data set relates to HTLA cells. Kind of data set: Genotoxicity, Western blot of γ-H2AX. It is filed as cell-based, human. The conditions noted are these: 100 μM. From the text:
To evaluate the genotoxic potential of XVIIIa and GEBR-7b, we analyzed the phosphorylation of the chromatin-bound histone H2AX (γ-H2AX), which is a quantitative marker for the DNA damage response at the site of double-strand breaks.
The H2AX signal represents the internal loading control.

Data set [2] has as its system extracellular cAMP in the hippocampus of freely moving rats. In words: In vivo cAMP-enhancing potential, intracerebral microdialysis. As to the method: The in vivo effects of XVIIIa on extracellular cAMP levels in the hippocampus of freely moving rats were analyzed by means of intracerebral microdialysis.
However, when the PDE4D inhibitor was infused at the concentration of 100 μM, a marked cAMP response could be observed (40-80% over basal values) as reported in FIG. 3. The effects of XVIIIa were similar to those previously reported for the PDE4D inhibitor GEBR-7b (lead compound; data taken from Bruno et al., Br. J. Pharmacol. 2011, 164, 2054-2063).
XVIIIa or GEBR-7b were administered through the probe after 3 consecutive control samples had been collected and were present in the infusion fluid for the time indicated by the horizontal empty bar. Data are expressed as percentages of the mean basal value (defined 100%) that was determined by averaging the cAMP content in the three fractions collected before drug treatment. Each point represents the mean±SEM for 3-6 different experiments.

Data set [3] deals with hippocampal slices from Tg2576 mice and WT littermates. Kind of data set: Electrophysiological study, LTP in hippocampal slices. The note with it: 2 μM, bath, 20 minutes before theta burst stimulation. How it is done: Compound XVIIIa was tested to determine whether PDE4D inhibition can revert the damage of synaptic function following Aβ elevation in Tg2576 mice.
All experiments were performed with approval of the Columbia University IACUC Committe. The animals were 12 month old single transgenic mice expressing the human APP mutation (K670N,M671L) (a.k.a. Tg2576), as well as their WT littermates.
Slice recordings were performed as described previously (Trinchese et al, Ann Neurol 2004). Briefly, 400-μm slices were cut with a tissue chopper and maintained in an interface chamber at 29° C. for 90 minutes prior to recording. CA1 fEPSPs were recorded by placing both the stimulating and the recording electrodes in CA1 stratum radiatum. Basal synaptic transmission was assayed either by plotting the stimulus voltages against slopes of fEPSP. For LTP experiments, a 10-minute baseline was recorded every minute at an intensity that evokes a response approximately 35% of the maximum evoked response. Baseline was followed by a 20 minute perfusion with the compound prior to eliciting LTP using θ-burst stimulation (4 pulses at 100 Hz, with the bursts repeated at 5 Hz, and each tetanus including 3 ten-burst trains separated by 15 seconds). […]

For data set [4], the system named is forskolin (FSK)-induced cAMP in neuronal cultured cells. Kind of data set: In vitro cAMP-enhancing potential (EIA). The note with it: 100 μM.
Data set [5] in a line: Pharmacokinetic analysis, plasma and brain.
[6] abbreviates: male, BALB/c, mouse, brain, sc, 10 mg/kg.
Where [7] appears, read: male, BALB/c, mouse, plasma, sc, 10 mg/kg.

The structures appear in SMILES notation.

PDE4D3, sequence (Q08499 1-673 isoform Q08499-2): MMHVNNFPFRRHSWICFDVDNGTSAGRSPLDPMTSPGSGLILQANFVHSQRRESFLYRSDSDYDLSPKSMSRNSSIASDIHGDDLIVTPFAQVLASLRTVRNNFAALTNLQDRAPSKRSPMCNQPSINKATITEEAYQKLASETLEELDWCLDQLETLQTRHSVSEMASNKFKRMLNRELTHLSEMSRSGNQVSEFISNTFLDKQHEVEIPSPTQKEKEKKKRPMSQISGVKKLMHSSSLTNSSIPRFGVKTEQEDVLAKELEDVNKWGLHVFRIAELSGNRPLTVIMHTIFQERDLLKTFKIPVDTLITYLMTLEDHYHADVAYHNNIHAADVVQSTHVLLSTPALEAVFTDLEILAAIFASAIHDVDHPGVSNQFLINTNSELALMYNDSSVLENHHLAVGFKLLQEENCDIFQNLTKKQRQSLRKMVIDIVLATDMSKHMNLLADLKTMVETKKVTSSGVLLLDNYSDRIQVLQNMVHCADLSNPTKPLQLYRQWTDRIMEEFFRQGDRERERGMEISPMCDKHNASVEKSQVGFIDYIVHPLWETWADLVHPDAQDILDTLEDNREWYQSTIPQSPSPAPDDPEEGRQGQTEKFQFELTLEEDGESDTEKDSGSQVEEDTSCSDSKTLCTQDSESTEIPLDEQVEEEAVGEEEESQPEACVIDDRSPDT
PDE4D2, sequence (Q08499 303-809 limits assumed): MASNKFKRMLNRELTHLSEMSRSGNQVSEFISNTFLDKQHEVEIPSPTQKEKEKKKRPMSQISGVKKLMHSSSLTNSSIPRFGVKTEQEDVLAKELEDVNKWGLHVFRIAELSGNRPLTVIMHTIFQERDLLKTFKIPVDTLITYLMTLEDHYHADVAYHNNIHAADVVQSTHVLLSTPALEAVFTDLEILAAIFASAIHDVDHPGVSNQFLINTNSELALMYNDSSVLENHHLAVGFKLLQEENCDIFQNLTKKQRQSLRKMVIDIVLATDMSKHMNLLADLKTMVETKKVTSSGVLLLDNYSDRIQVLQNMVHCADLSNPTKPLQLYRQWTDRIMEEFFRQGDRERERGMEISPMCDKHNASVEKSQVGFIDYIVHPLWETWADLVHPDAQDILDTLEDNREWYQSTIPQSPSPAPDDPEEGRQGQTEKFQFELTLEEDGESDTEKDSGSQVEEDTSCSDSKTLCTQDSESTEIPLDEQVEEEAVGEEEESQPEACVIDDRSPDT
T2 sequence (Q08493 107-712): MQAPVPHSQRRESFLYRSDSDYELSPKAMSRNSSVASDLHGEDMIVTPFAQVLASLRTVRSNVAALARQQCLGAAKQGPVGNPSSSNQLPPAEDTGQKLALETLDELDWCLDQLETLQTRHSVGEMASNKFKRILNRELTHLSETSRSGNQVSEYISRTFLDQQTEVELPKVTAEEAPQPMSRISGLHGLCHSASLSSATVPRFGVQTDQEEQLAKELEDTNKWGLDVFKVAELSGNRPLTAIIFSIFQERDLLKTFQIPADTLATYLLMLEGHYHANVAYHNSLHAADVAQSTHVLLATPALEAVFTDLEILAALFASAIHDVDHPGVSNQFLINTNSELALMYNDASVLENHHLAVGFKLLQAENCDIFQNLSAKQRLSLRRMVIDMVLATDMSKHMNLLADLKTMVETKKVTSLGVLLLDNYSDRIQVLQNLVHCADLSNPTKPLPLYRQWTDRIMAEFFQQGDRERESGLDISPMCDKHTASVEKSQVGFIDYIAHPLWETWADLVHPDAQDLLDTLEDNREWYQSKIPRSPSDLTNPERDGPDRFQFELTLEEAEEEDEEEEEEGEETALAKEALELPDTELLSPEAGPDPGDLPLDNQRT
T1 sequence (Q07343 1-564 isoform Q07343-2): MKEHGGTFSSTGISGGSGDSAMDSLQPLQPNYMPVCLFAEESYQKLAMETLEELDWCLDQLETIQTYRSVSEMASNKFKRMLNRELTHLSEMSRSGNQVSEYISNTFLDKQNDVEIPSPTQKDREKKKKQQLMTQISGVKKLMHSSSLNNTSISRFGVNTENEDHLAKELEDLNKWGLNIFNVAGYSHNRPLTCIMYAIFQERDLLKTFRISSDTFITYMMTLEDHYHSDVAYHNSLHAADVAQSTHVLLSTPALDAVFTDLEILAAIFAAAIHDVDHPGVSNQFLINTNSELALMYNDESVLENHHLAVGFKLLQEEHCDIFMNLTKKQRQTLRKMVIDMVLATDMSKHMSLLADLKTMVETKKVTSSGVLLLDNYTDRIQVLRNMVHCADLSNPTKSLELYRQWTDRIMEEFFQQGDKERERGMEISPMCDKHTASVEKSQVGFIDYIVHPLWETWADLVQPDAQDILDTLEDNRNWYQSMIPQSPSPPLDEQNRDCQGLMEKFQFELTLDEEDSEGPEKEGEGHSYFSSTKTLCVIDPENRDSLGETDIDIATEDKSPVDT
PDE4A4, sequence (P27815 whole entry): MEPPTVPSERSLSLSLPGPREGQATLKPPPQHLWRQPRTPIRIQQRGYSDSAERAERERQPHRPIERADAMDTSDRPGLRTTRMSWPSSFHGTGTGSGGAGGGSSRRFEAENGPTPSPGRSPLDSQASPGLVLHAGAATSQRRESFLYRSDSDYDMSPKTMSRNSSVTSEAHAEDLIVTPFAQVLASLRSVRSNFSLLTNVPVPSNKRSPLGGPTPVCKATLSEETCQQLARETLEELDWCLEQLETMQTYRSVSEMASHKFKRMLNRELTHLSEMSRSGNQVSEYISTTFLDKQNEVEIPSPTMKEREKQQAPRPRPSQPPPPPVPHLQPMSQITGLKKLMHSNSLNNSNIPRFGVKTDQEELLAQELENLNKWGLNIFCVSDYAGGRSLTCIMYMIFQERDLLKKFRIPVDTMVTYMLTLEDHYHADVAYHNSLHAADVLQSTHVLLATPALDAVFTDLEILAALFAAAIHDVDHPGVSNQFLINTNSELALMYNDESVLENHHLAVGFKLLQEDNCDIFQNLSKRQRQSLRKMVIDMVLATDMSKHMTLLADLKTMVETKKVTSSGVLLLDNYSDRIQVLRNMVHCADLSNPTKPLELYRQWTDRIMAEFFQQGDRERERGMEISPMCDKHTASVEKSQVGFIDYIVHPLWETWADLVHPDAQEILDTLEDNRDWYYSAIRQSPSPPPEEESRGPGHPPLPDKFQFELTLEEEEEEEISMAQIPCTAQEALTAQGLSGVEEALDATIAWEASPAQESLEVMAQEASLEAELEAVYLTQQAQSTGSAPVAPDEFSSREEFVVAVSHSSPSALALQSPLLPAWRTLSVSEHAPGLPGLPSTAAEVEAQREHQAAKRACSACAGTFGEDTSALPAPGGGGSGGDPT
PDE4D1, sequence (Q08499 1-584 isoform Q08499-4): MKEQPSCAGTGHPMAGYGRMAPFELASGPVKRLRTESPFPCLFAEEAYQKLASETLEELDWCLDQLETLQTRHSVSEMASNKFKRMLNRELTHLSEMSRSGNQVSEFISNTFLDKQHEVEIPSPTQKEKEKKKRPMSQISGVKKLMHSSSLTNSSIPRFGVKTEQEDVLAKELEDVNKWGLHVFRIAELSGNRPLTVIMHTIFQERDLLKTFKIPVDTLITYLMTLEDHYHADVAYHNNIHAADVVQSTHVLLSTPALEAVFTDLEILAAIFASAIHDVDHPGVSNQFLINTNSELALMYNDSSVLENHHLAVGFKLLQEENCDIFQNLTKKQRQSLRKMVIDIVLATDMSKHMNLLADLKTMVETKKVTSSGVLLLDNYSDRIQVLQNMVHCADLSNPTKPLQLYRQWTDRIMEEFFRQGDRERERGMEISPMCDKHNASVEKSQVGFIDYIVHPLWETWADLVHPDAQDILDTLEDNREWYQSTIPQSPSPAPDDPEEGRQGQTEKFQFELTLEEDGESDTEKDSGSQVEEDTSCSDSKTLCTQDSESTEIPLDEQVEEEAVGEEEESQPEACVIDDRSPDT

Take `COc1ccc(-c2ccn(CC(O)CN3CCOCC3)n2)cc1OC1CCCC1` (stereo not drawn) [XVIIIa, 1-{3-[3-(Cyclopentyloxy)-4-methoxyphenyl]-1H-pyrazol-1-yl}-3-morpholin-4-ylpropan-2-ol dihydrocloride]: the “PDE4D1 % inib at 10 μM” value on PDE4D1 was 34%. In addition, the “PDE4D2 % inib at 10 μM” value on PDE4D2 stood at 28%. Further, the “PDE4D3 % inib at 10 μM” value at PDE4D3 (10 μM, in duplicate) is reported as 68%. Further, the IC50 (commonly the concentration that inhibits the measured activity by half) on PDE4D3 (five concentrations 10^−8-10^−4 M) was found to be 7.6 µM. Further, the “PDE4A4 % inib at 10 μM” value at PDE4A4 stood at 22%. Besides, the “PDE4B2 % inib at 10 μM” value on PDE4B2 is given as 18%. Besides, the “PDE4C2 % inib at 10 μM” value at PDE4C2 stood at 11%. The cytotoxicity at 24 h, 100 µM in [1] was determined as 3.3 ± 0.4%. For the same molecule, the “DNA damage (γ-H2AX)” value with HTLA cells is “not observed”. The “hippocampal extracellular cAMP” value in data set [2] (30 μM by reverse dialysis) is “slight, though not significant, increase”. The “hippocampal extracellular cAMP response” value in [2] (100 μM infused) is 40-80 % over basal values. For the same molecule, in data set [3], the “LTP in WT littermates” value was “without affecting LTP” and the “LTP in hippocampal slices from 12 month-old Tg mice” value was “rescued the defect in LTP”. Further, in data set [4] (10 min pre-treatment, then 1 μM FSK 20 min), the “accumulation of forskolin (FSK)-induced cAMP, fold induction” value amounted to 3 fold. Further, the “basal cAMP levels” value in [4] (without FSK) is “without affecting the basal cAMP levels”. This molecule returned an AUC0-t in data set [5] (brain, male BALB/c mice, 10 mg/kg subcutaneously) of 812 ng·h/g. In addition, in data set [5] (setting [6]), the Cmax (commonly the maximum level reached in the sampled fluid or tissue) was 936 ng/g; the Tmax (in general, the time at which the peak concentration occurs) stood at 10.2 min; the half-life (in general, the time needed for the level to fall by half in the phase considered) was 32.4 min. Besides, in [5] (male, BALB/c, mouse, in vivo, sc, 10 mg/kg), the concentration ratio (Kp) (as a rule, tissue or fluid exposure divided by exposure in the circulation) came out at 0.75. In data set [5] (setting [7]), the AUC0-t was 1890 ng·h/mL, the Cmax was determined as 2160 ng/mL, the Tmax turned out to be 10.2 min and the half-life is 49.2 min.
